Results on 5 molecules are retold here after patent US10209240B2, “Predicting human developmental toxicity of pharmaceuticals using human stem-like cells and metabolomic ratios” (STEMINA BIOMARKER DISCOVERY, INC., priority 2012, dated 2019).

One data set deals with Rodent. Particulars: cited from earlier work; for Rodent prediction: training and test set.
Data set [1] relates to mouse embryonic stem cell. Particulars: training and test set; weak/moderate and strong teratogens both labeled teratogen; cited from earlier work.
The test system of data set [2] is WA09 hES cells. Description: Phase 2 targeted biomarker assay, ornithine/cystine ratio, 9-point dose response. Particulars: for Teratogenicity Potential (μM) O/C Ratio: human, 72 h. In short, it runs like this: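 WA09 hES cells (≤ passage 40), plated as single cells at 100,000/well on Matrigel in mTeSR1 with 10 μM Y27632, dosed 24 h later with nine 3-fold dilutions, 0.04–300 μM, 0.1% DMSO, for 72 h. Final-24 h spent medium, spiked with 13C6-arginine and filtered (<10 kDa), analysed by LC-HRMS; viability by CellTiter-Fluor.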

For data set [3], the system named is WA09 hES cells. Description: Phase 1 untargeted metabolomics of hES cell spent media, single concentration (ornithine, cystine, o/c ratio). Particulars: for Cystine abundance relative to the reference treatment / Ornithine abundance relative to the reference treatment: Phase 1, spent media, 72 hours, reference 0.1% DMSO; for Cystine abundance relative to the reference treatment: Cmax exposure (IC30 for hydroxyurea); for Ornithine abundance relative to the reference treatment: Cmax or IC30 exposure. The data set is classed as cell-based, human. How it is done: Undifferentiated hES Cell Line Maintenance (Phases 1 and 2).
96-well hES Cell Plating (Phases 1 and 2). […] Compound exposure began 24 hours after plating.
Sample Preparation (Phases 1 and 2).
Phase 1 Mass Spectrometry. LC-HRMS data was acquired for nine biological replications on three separate LC-HRMS systems with three replications evaluated on each system. Each system consisted of an Agilent 1290 Infinity LC system interfaced either with an Agilent G6520A QTOF high resolution mass spectrometer (QTOF HRMS), an Agilent G6530A QTOF HRMS, or an Agilent G6224A TOF HRMS system (Agilent Technologies, Santa Clara, Calif.). To facilitate separation of biological small molecules with a wide range of structures and to allow increased retention of hydrophilic species, Hydrophilic Interaction Liquid Chromatography (HILIC) was utilized. A Luna HILIC column (Phenomenex, Torrance, Calif.) with dimensions 3×100 mm and 3 μm particle size was used and maintained at 30° C. […] Electrospray ionization was employed using a dual ESI source. The scan range of the instrument was 70-1600 Da. Data acquisition was performed with MassHunter Acquisition software (version B 04.00, Agilent Technologies) using high-resolution exact mass conditions and each set of samples was run first under ESI positive polarity then under ESI negative polarity conditions.
Peak Detection (Phases 1 and 2). […] Mass features (peaks) were detected using the centwave algorithm.
Ornithine/Cystine Ratio Calculation.
Teratogenicity Threshold Selection (Phases 1 and 2).
Phase 1 Prediction of Developmental Toxicity Potential. A test compound was classified as a developmental toxicant if the mean of the change in the abundance in the treated sample compared to the reference treatment (DMSO) across the nine experimental replications for either metabolite or the o/c ratio exceeded its respective teratogenicity threshold at the concentration tested. The predictive accuracy (correct prediction), sensitivity (true positive rate), and specificity (true negative rate) were based on scoring the predicted result (teratogen or non-teratogen) against the known human teratogenicity of the compound.

As to `CC1=C(/C=C/C(C)=C/C=C/C(C)=C\C(=O)O)C(C)(C)CCC1` [13-cis Retinoic Acid], the Rodent prediction result in the data set on Rodent was “TER”. For the same molecule, the mEST prediction entry in data set [1] is “TER^p”. For the same molecule, in the data set with WA09 hES cells [2], the “O/C Ratio Prediction” value is recorded as “TER”, the “Targeted Biomarker Assay prediction” value is reported as “TER” and the “Teratogenicity Potential (μM) O/C Ratio” value was determined as 0.0007 µM. In the data set on WA09 hES cells [3], the “Cystine abundance relative to the reference treatment” value is “significant increase in abundance” and the “Ornithine abundance relative to the reference treatment” value is listed as “increased”.

For the molecule `CC1=C(/C=C/C(C)=C/C=C/C(C)=C/C(=O)O)C(C)(C)CCC1` [All-trans Retinoic Acid], the Rodent prediction result in the data set with Rodent is given as “TER”. In addition, the mEST prediction entry in data set [1] is “TER^b,p”. In the data set with WA09 hES cells [2], the “Change in the o/c ratio, also relative to cytotoxicity” value is “change in the o/c ratio indicative of developmental toxicity in the absence of cytotoxicity”; the “O/C Ratio Prediction” value is on record as “TER”; the “Targeted Biomarker Assay prediction” value was “TER”; the “Teratogenicity Potential (μM) O/C Ratio” value was determined as 0.00004 µM. Besides, in the data set on WA09 hES cells [3], the “Cystine abundance relative to the reference treatment” value is on record as “significant increase in abundance” and the “Ornithine abundance relative to the reference treatment” value was “increased”.

Consider `NC(=O)N1c2ccccc2C=Cc2ccccc21` [Carbamazepine], for which the Rodent prediction entry in the data set with Rodent is recorded as “TER”. In addition, the mEST prediction result in data set [1] is recorded as “TER^i”. In the data set with WA09 hES cells [2], the “O/C Ratio Prediction” value is listed as “TER”, the “Targeted Biomarker Assay prediction” value is “TER” and the “Teratogenicity Potential (μM) O/C Ratio” value turned out to be 0.9 µM. In the data set with WA09 hES cells [3], the “Cystine abundance relative to the reference treatment” value is “significant increase in abundance”.

In the case of `O=C1NC(=O)C(c2ccccc2)(c2ccccc2)N1` [Diphenylhydantoin], the Rodent prediction result in the data set on Rodent is “TER”. In addition, the mEST prediction result in data set [1] is on record as “TER^b,i”. In addition, in the data set with WA09 hES cells [2], the “Classification by o/c ratio in the targeted biomarker assay” value is given as “misclassified”, the “O/C Ratio Prediction” value is “NON”, the “Targeted Biomarker Assay prediction” value is on record as “NON” and the “Teratogenicity Potential (μM) O/C Ratio” value stood at 263.3 µM. Moreover, the “Classification by o/c ratio in Phase 1” value with WA09 hES cells [3] (teratogenicity threshold of a 12% decrease in the o/c ratio, single concentration) is recorded as “misclassifying”.

Consider `O=C1CCC(N2C(=O)c3ccccc3C2=O)C(=O)N1` (centres unmarked) [Thalidomide], for which the “Rodent developmental toxicity testing, result in words” value in the data set with Rodent (relation to maternal toxicity where stated) was “did not indicate the compound's teratogenic potential in humans”. The Rodent prediction result in the data set on Rodent is “NON^a”. In the data set with WA09 hES cells [2], the “Change in the o/c ratio, also relative to cytotoxicity” value is “change in the o/c ratio indicative of developmental toxicity in the absence of cytotoxicity”; the “O/C Ratio Prediction” value is recorded as “TER”; the “Targeted Biomarker Assay prediction” value is “TER”; the “Teratogenicity Potential (μM) O/C Ratio” value worked out at 0.2 µM. In addition, the “Cystine abundance relative to the reference treatment” value with WA09 hES cells [3] is “significant increase in abundance”.
